Experimental data from patent publication US20140066394A1, “Substituted 6-(Benzylamino) Purine Riboside Derivatives, Use Thereof and Compositions Containing These Derivatives” (Biopatterns, S.R.O, priority 2009, published 2014).

tested on: breast carcinoma cell line MCF-7; test: In vitro cytotoxicity, Calcein AM assay, MCF7; assay type: cell-based, human; details: 72 hours
Excerpt: (§1) Low cytotoxicity of the compounds is the major property determining the cosmetic use. One of the parameters used, as the basis for cytotoxicity assays, is the metabolic activity of viable cells. For example, a microtiter assay, which uses the Calcein AM, is now widely used to quantitate cell proliferation and cytotoxicity. For instance, this assay is used in drug screening programs and in chemosensitivity testing. Because only metabolically active cells cleave Calcein AM, these assays detect viable cells exclusively. The quantity of […] Calcein AM corresponds to the number of vital cells in the culture.
(§2) Human T-lymphoblastic leukemia cell line CEM; promyelocytic HL-60 and monocytic U937 leukemias; breast carcinoma cell lines MCF-7, BT549, MDA-MB-231; glioblastoma U87MG cells; cervical carcinoma cells HELA; sarcoma cells U2OS and Saos2; hepatocellular carcinoma HepG2; mouse fibroblasts NIH3T3; mouse immortalized bone marrow macrophages B2.4 and B10A.4; P388D1 and L1210 leukemia; B16 and B16F10 melanomas; human osteosarcoma HOS; human myeloid leukemia K-562; human skin melanoma G-361 were used for routine screening of compounds. The cells were maintained in Nunc/Corning 80 cm^2 plastic tissue culture flasks and cultured in cell culture medium (DMEM with 5 g/l glucose, 2 mM glutamine, 100 U/mL penicillin, 100 μg/mL streptomycin, 10% fetal calf serum and sodium bicarbonate).
(§3) The cell suspensions that were prepared and diluted according to the particular cell type and the expected target cell density (2.500-30.000 cells per well based on cell growth characteristics) were added by pipette ([…]) into 96/well microtiter plates. Inoculates were allowed a pre-incubation period of 24 hours at 37° C. and 5% CO2 for stabilisation. Four-fold dilutions of the intended test concentration were added at time zero in 20 μl aliquots to the microtiter plate wells. Usually, the compound tested was evaluated at six 4-fold dilutions. In routine testing, the highest well concentration was 100 μM, but it can be the matter of change dependent on the agent. All drug concentrations were examined in duplicates. Incubations of cells with the tested compounds lasted for 72 hours at 37° C., in 5% CO2 atmosphere and 100% humidity. At the end of the incubation period, the cells were assayed by using Calcein AM. Ten microliters of the stock solution were pipetted into each well and incubated for 1 hour. Fluorescence (FD) was measured with the Labsystem FIA Reader Fluoroscan Ascent (UK). The tumour cell survival (GI50) was calculated using the following equitation: TCS=(FDdrug exposed well/mean FDeontrol wells)×100%. The GI50 value, the drug concentration lethal to 50% of the tumour cells, was calculated from the obtained dose response curves.
(§4) Zero cytotoxicity of the novel compounds is the basic prerequisite for agricultural and tumor-unrelated applications. The cytoxicity of the novel compounds was tested on a panel of cell lines of different histogenetic and species origin (Table 9). We show herein that equal activities were found in all tumour cell lines tested, however, the non-malignant cells, e.g. NIH3T3 fibroblasts and normal human lymphocytes, were resistant to 2,6-disubstituted purine ribosides induced cytotoxicity. The compounds listed in Tab. 9 can be divided into 2 groups. The first group contains “classical cytokinins” represented by 6-substituted purine ribosides (which are known in the prior art). The second group contains the novel 2,6-disubstituted derivatives of these compounds. […] GI50 for NIH3T3 fibroblasts and normal human lymphocytes was always higher than 100 μM. The novel derivatives show no toxicity to normal and tumour cells in concentrations about 100 μM and thus are more suitable for agricultural applications than “classical cytokinins” (6-substituted purine riboside derivatives).

SMILES	GI50 [µM]
OC[C@H]1O[C@@H](n2cnc3c(NCc4cc(Cl)ccc4O)nc(Cl)nc32)[C@H](O)[C@@H]1O [Compound 29, 2-Chloro-6-(2-hydroxy-5-chlorobenzylamino)purine riboside]	> 100

same assay, conditions: Homo sapiens, MCF7, 72 hours

SMILES	GI50 [µM]
OCC1OC(n2cnc3c(NCc4cc(F)ccc4O)nc(Cl)nc32)C(O)C1O (stereo not drawn) [Compound 30]	> 100

tested on: human myeloid leukemia K-562; test: In vitro cytotoxicity, Calcein AM assay, K-562; assay type: cell-based; details: 72 hours
Excerpt: as §1, §2, §3, §4

SMILES	GI50 [µM]
OC[C@H]1O[C@@H](n2cnc3c(NCc4cc(Cl)ccc4O)nc(Cl)nc32)[C@H](O)[C@@H]1O [Compound 29, 2-Chloro-6-(2-hydroxy-5-chlorobenzylamino)purine riboside]	> 100

same assay, conditions: Homo sapiens, K562, 72 hours

SMILES	GI50 [µM]
OCC1OC(n2cnc3c(NCc4cc(F)ccc4O)nc(Cl)nc32)C(O)C1O (stereo not drawn) [Compound 30]	> 100

tested on: Human T-lymphoblastic leukemia cell line CEM; test: In vitro cytotoxicity, Calcein AM assay, CEM; assay type: cell-based; details: 72 hours
Excerpt: as §1, §2, §3, §4

SMILES	GI50 [µM]
OC[C@H]1O[C@@H](n2cnc3c(NCc4cc(Cl)ccc4O)nc(Cl)nc32)[C@H](O)[C@@H]1O [Compound 29, 2-Chloro-6-(2-hydroxy-5-chlorobenzylamino)purine riboside]	> 100

same assay, conditions: Homo sapiens, 72 hours

SMILES	GI50 [µM]
OCC1OC(n2cnc3c(NCc4cc(F)ccc4O)nc(Cl)nc32)C(O)C1O (stereo not drawn) [Compound 30]	> 100

tested on: promyelocytic HL-60 leukemia; test: In vitro cytotoxicity, Calcein AM assay, HL60; assay type: cell-based, human; details: 72 hours
Excerpt: as §1, §2, §3, §4

SMILES	GI50 [µM]
OC[C@H]1O[C@@H](n2cnc3c(NCc4cc(Cl)ccc4O)nc(Cl)nc32)[C@H](O)[C@@H]1O [Compound 29, 2-Chloro-6-(2-hydroxy-5-chlorobenzylamino)purine riboside]	> 100

same assay, conditions: Homo sapiens, HL-60, 72 hours

SMILES	GI50 [µM]
OCC1OC(n2cnc3c(NCc4cc(F)ccc4O)nc(Cl)nc32)C(O)C1O (stereo not drawn) [Compound 30]	> 100

tested on: human skin melanoma G-361; test: In vitro cytotoxicity, Calcein AM assay, G-361; assay type: cell-based; details: 72 hours
Excerpt: as §1, §2, §3, §4

SMILES	GI50 [µM]
OC[C@H]1O[C@@H](n2cnc3c(NCc4cc(Cl)ccc4O)nc(Cl)nc32)[C@H](O)[C@@H]1O [Compound 29, 2-Chloro-6-(2-hydroxy-5-chlorobenzylamino)purine riboside]	> 100

same assay, conditions: Homo sapiens, G-361, 72 hours

SMILES	GI50 [µM]
OCC1OC(n2cnc3c(NCc4cc(F)ccc4O)nc(Cl)nc32)C(O)C1O (stereo not drawn) [Compound 30]	> 100

tested on: human osteosarcoma HOS; test: In vitro cytotoxicity, Calcein AM assay, HOS; assay type: cell-based; details: 72 hours
Excerpt: as §1, §2, §3, §4

SMILES	GI50 [µM]
OC[C@H]1O[C@@H](n2cnc3c(NCc4cc(Cl)ccc4O)nc(Cl)nc32)[C@H](O)[C@@H]1O [Compound 29, 2-Chloro-6-(2-hydroxy-5-chlorobenzylamino)purine riboside]	> 100

same assay, conditions: Homo sapiens, 72 hours

SMILES	GI50 [µM]
OCC1OC(n2cnc3c(NCc4cc(F)ccc4O)nc(Cl)nc32)C(O)C1O (stereo not drawn) [Compound 30]	> 100

tested on: cytokinin-dependent tobacco callus Nicotiana tabacum L. cv. Wisconsin 38; test: Tobacco callus bioassay (stimulation of plant cell division); assay type: cell-based; details: increase of fresh callus weight after four weeks; tested 10^−8 M to 10^−4 M
Description: Cytokinin-dependent tobacco callus Nicotiana tabacum L. cv. Wisconsin 38 was maintained at 25° C. in darkness on modified MS medium, containing per 1 liter: 4 μmol of nicotinic acid, 2.4 μmol of pyridoxine hydrochloride, 1.2 μmol of thiamine, 26.6 μmol of glycine, 1.37 μmol of glutamine, 1.8 μmol of myo-inositol, 30 g of sucrose, 8 g of agar, 5.37 μmol of NAA and 0.5 μmol of the compound tested. Subcultivation was carried out every three weeks. Fourteen days before the bioassay, the callus tissue was transferred to the media without the compound tested. The biological activity was determined from the increase of the fresh callus weight after four weeks of cultivation. Five replicates were prepared for each concentration of the compound tested and the entire test was repeated twice. From the obtained data, the concentration with the highest activity was selected for each compound tested. Relative activity of the compound at this concentration was calculated (Table 8). The compounds to be tested were dissolved in dimethylsulfoxide (DMSO) and the solution brought up to 10^−3M with distilled water. […] The compounds listed in Table 8 are compared to a “classical cytokinin” kinetin riboside (compound known in the prior art—C=control).

SMILES	concentration with highest activity
OC[C@H]1O[C@@H](n2cnc3c(NCc4ccco4)ncnc32)[C@H](O)[C@@H]1O [C, kinetin riboside, reference compound]	10^−5 mol · l^−1
OCC1OC(n2cnc3c(NCc4cc(F)ccc4O)nc(Cl)nc32)C(O)C1O (stereo not drawn) [Compound 30]	10^−6 mol · l^−1
OCC1OC(n2cnc3c(NCc4ccc(F)cc4F)nc(Cl)nc32)C(O)C1O (stereo not drawn) [Compound 32]	10^−6 mol · l^−1
OCC1OC(n2cnc3c(NCc4c(F)ccc(F)c4F)nc(Cl)nc32)C(O)C1O (stereo not drawn) [Compound 33]	10^−6 mol · l^−1
OCC1OC(n2cnc3c(NCc4cc(Cl)ccc4O)nc(F)nc32)C(O)C1O (stereo not drawn) [Compound 49]	10^−6 mol · l^−1
CSc1nc(NCc2ccc(F)cc2F)c2ncn(C3OC(CO)C(O)C3O)c2n1 (stereo not drawn) [Compound 97]	10^−6 mol · l^−1

same assay, conditions: relative activity at the concentration with highest activity; kinetin riboside at 10^−5 mol/l = 100%

SMILES	activity (%) [10^−5 mol · l^−1 C = 100%]
OC[C@H]1O[C@@H](n2cnc3c(NCc4ccco4)ncnc32)[C@H](O)[C@@H]1O [C, kinetin riboside, reference compound]	100%
OCC1OC(n2cnc3c(NCc4cc(F)ccc4O)nc(Cl)nc32)C(O)C1O (stereo not drawn) [Compound 30]	108.6 (±3) %
OCC1OC(n2cnc3c(NCc4ccc(F)cc4F)nc(Cl)nc32)C(O)C1O (stereo not drawn) [Compound 32]	109.7 (±12) %
OCC1OC(n2cnc3c(NCc4c(F)ccc(F)c4F)nc(Cl)nc32)C(O)C1O (stereo not drawn) [Compound 33]	105.1 (±2) %
OCC1OC(n2cnc3c(NCc4cc(Cl)ccc4O)nc(F)nc32)C(O)C1O (stereo not drawn) [Compound 49]	112 (±8) %
CSc1nc(NCc2ccc(F)cc2F)c2ncn(C3OC(CO)C(O)C3O)c2n1 (stereo not drawn) [Compound 97]	107 (±8) %

tested on: β-adrenergic receptors; test: Isoproterenol-induced cAMP synthesis in rat C6 glioma (anti-inflammatory activity); assay type: cell-based; details: added simultaneously with (−)-isoproterenol
Description: Anti-inflammatory activity of several of the 2-substituted 6-benzylaminopurine riboside derivatives of this invention was determined; kinetin riboside was also evaluated as a control. Rat C6 glioma (ATCC No. CCL107) was cultivated in monolayer in serum-free chemically defined medium containing Ham's F10/minimal essential medium (1:1 v/v), 2 mM L-glutamine, 1% (v/v) minimal essential medium vitamins (100×), 1% (v/v) minimal essential medium nonessential amino acids (100×), 100 U/mL penicillin, […], and 30 nM sodium selenite. Incubation was performed at 37° C. in a humidified atmosphere. The assays were performed in the logaritmic growth phase at a density of 2.5×10^5 cells/cm^2.
Intracellular cAMP synthesis was induced by addition of 5 mM (−)-isoproterenol; various amounts of test compounds were added at the same time as the (−)-isoproterenol. After […] incubation at 37° C., the medium was removed and the cellular amount of cAMP was determined using the cAMP-enzyme immunoassay kit from Amersham. The I50 value was determined from a dose-response curve in duplicate. The effect of nine purine analogues was measured after simultaneous addition with isoproterenol.
As P2Y1-like and A2 purinergic receptors, negatively and positively coupled to adenylate cyclase respectively, are present on rat C6 glioma as to be determined if the modulation of the synthesis of cAMP is due to inhibition of the activation of β-adrenergic receptors by isoproterenol are due to activation of purinergic receptors.

SMILES	Effect (modulation of isoproterenol-induced cAMP synthesis)
OC[C@H]1O[C@@H](n2cnc3c(NCc4ccco4)ncnc32)[C@H](O)[C@@H]1O [C, kinetin riboside, reference compound]	inactive
OC[C@H]1O[C@@H](n2cnc3c(NCc4cc(Cl)ccc4O)nc(Cl)nc32)[C@H](O)[C@@H]1O [Compound 29, 2-Chloro-6-(2-hydroxy-5-chlorobenzylamino)purine riboside]	inhibition

Further lines, results first:

Effect (modulation of isoproterenol-induced cAMP synthesis)	SMILES
inhibition	OCC1OC(n2cnc3c(NCc4cc(F)ccc4O)nc(Cl)nc32)C(O)C1O (stereo not drawn) [Compound 30]
inhibition	COc1cccc(CNc2nc(F)nc3c2ncn3C2OC(CO)C(O)C2O)c1O (stereo not drawn) [Compound 40]
inhibition	OCC1OC(n2cnc3c(NCc4cc(Cl)ccc4O)nc(F)nc32)C(O)C1O (stereo not drawn) [Compound 49]
inhibition	OCC1OC(n2cnc3c(NCc4cc(F)ccc4O)nc(F)nc32)C(O)C1O (stereo not drawn) [Compound 50]

same assay, conditions: added simultaneously with (−)-isoproterenol, listed as control

Effect (modulation of isoproterenol-induced cAMP synthesis)	SMILES
none	OC[C@H]1O[C@@H](n2cnc3c(NCc4ccco4)ncnc32)[C@H](O)[C@@H]1O [C, kinetin riboside, reference compound]

same assay, conditions: cellular cAMP by enzyme immunoassay, dose-response curve in duplicate, read-out: I50

IC50 [µM]	SMILES
12.4 ± 2	OC[C@H]1O[C@@H](n2cnc3c(NCc4cc(Cl)ccc4O)nc(Cl)nc32)[C@H](O)[C@@H]1O [Compound 29, 2-Chloro-6-(2-hydroxy-5-chlorobenzylamino)purine riboside]
15.7 ± 4	OCC1OC(n2cnc3c(NCc4cc(F)ccc4O)nc(Cl)nc32)C(O)C1O (stereo not drawn) [Compound 30]
4.2 ± 2	COc1cccc(CNc2nc(F)nc3c2ncn3C2OC(CO)C(O)C2O)c1O (stereo not drawn) [Compound 40]
10.8 ± 3	OCC1OC(n2cnc3c(NCc4cc(Cl)ccc4O)nc(F)nc32)C(O)C1O (stereo not drawn) [Compound 49]
13.6 ± 3	OCC1OC(n2cnc3c(NCc4cc(F)ccc4O)nc(F)nc32)C(O)C1O (stereo not drawn) [Compound 50]
